# Laboratory results reported in patent US20250345332A1, “APROCITENTAN FOR THE TREATMENT OF HYPERTENSION” (IDORSIA PHARMACEUTICALS LTD, priority 2022, published 2025).
# Entries after “also recorded” stand apart in the source; their conditions may differ. Read-outs that look alike come from different tables or passages of the source.
# Key:
# [1] = test system: subjects having essential hypertension; details: cited from earlier work
# [2] = test system: patients with resistant hypertension; assay: PRECISION phase 3 trial: urine albumin-creatinine ratio (UACR); assay type: in vivo, human
# Description: A single, randomized study with three sequential treatment parts was designed. The study design addressed both the 4-week placebo-controlled efficacy of 12.5 and 25 mg aprocitentan (Part 1) and the durability of its effects in long-term active treatment with 25 mg aprocitentan for a further 32 weeks (Part 2) followed by a 12-week placebo-controlled withdrawal period with patients re-randomized to 25 mg or placebo (Part 3) (see for example Danaietash P et al; Identifying and treating resistant hypertension in PRECISION—a randomized long-term clinical trial with Aprocitentan. J Clin Hypertension 2022 (in press). Patients with uncontrolled BP (measured as unattended automated office BP) despite the use of three or more antihypertensive medications for at least 1 year were screened. They were switched to a single-tablet triple fixed combination antihypertensive therapy for at least 4 weeks before entering a single-blind placebo run-in period. The 4-week placebo run-in period further excluded placebo responders. The randomization period consisted of 3 sequential parts: • 1) a 4-week double-blind part with aprocitentan 12.5 mg, 25 mg, or placebo (1:1:1 ratio); • 2) a 32-week single-blind part with aprocitentan 25 mg; and • 3) a 12-week randomized withdrawal part with aprocitentan 25 mg or placebo (1:1 ratio).
# • Part 1: Double-blind, randomized parallel-group and placebo-controlled and lasts for 4 weeks. Subjects received (1:1:1 ratio), 25 or 12.5 mg aprocitentan, or placebo. • Part 2: Single-blind and single-arm, lasts for 32 weeks. All subjects received aprocitentan 25 mg. • Part 3: Double-blind withdrawal. All subjects completing part 2 and entering part 3 are re-randomized (1:1 ratio) to either aprocitentan 25 mg or placebo.
# In a population with difficult-to control hypertension (mean age of 62 years, obesity [69.3% of subjects], >50% with diabetes mellitus, 22% with CKD stage 3-4), evaluation of UACR is important. […] The geometric mean UACR at baseline was 26.6 mg/g in the overall population. At Week 4, placebo-corrected reductions in UACR of 30% and 34% with aprocitentan 12.5 mg and 25 mg were noted, respectively.
compound,measurement,setting,value
"NS(=O)(=O)Nc1ncnc(OCCOc2ncc(Br)cn2)c1-c1ccc(Br)cc1 [aprocitentan, {5-(4-bromo-phenyl)-6-[2-(5-bromo-pyrimidin-2-yloxy)-ethoxy]-pyrimidin-4-yl}-sulfamide]",tolerability,"[1]; across all four doses (5, 10, 25, 50 mg)",well tolerated
same,cases of increased liver enzymes above three times the upper limit of the normal range,[1]; aprocitentan 5 mg group,one
same,cases of peripheral edema,[1]; aprocitentan 25 mg group,two
same,cases of peripheral edema,[1]; aprocitentan 50 mg group,two
same,mean body weight change from baseline,[1]; aprocitentan 5 and (10) mg groups,remained unchanged
same,mean body weight increase from baseline,[1]; aprocitentan 25 and 50 mg groups,0.4 kg
same,reduction in UACR,"[2]; aprocitentan 12.5 mg, subjects with CKD stage 3-4",−26%
same,reduction in UACR,"[2]; aprocitentan 12.5 mg, subjects with baseline microalbuminuria",−43%
same,UACR reduction during part 2,"[2]; aprocitentan 25 mg, single-blind part 2",maintained; also recorded: sustained
same,reduction in UACR,"[2]; aprocitentan 25 mg, subjects with CKD stage 3-4",−45%
same,reduction in UACR,"[2]; aprocitentan 25 mg, subjects with baseline microalbuminuria",−45%
same,antiproteinuric effect (UACR change),[2]; patients with chronic kidney disease stage 3-4,−46%
same,antiproteinuric effect (UACR change),[2]; patients with eGFR of 60 mL/min per 1.73 m^2 or higher,−26%
same,antiproteinuric effect,"[2]; preliminary data, subjects with SGLT-2 inhibitor plus standardized antihypertensive background therapy, small sample size",improved antiproteinuric effect
